Laboratory results taken from article PMC6102592, “Synthesis of New Benzothiazole Acylhydrazones as Anticancer Agents” (Molecules : A Journal of Synthetic Chemistry and Natural …, 2018).

Key:
C6 cell line = test: Flow cytometric analysis (Annexin V-FITC/PI); type: cell-based, Rat; details: for Q1 percentage of necrotic cells / Q2 percentage of late apoptotic cells / Q4 percentage of early apoptotic cells / Q3 percentage of viable cells / viability at 15 µM: 24 h; for percentages of apoptotic cells: C6, at IC50 concentrations, 24 h (sum of Q2 and Q4); for viability at 15 µM: Rattus norvegicus, read-out: Q3 percentage of viable cells
Source text: In the therapy of cancer, apoptosis, or programmed cell death, is one of the distinguished mechanisms of cytotoxic agents. It is an important approach to express the cell death pathway and most of the anticancer drugs induce apoptosis in tumor cells. Annexin V-FITC is a reagent that can detect and measure quantitate of apoptotic cells by flow cytometry. Staining cells with PI and Annexin V-FITC show the differences between live, apoptotic, dead, and late apoptotic or necrotic cells. Thus, this method provides evidence on the pathway of cell death.
Death pathway of the carcinogenic cell lines was detected by Annexin V-FITC Apoptosis Detection Kit (BD, Pharmingen, City, US State abbrev. if applicable, Country) as reported in the manufacturer’s instructions. […] After 24 h incubation period, cells were harvested by centrifugation at 1200 rpm for 5 min. at room temperature, rinsed with cold water twice and then suspended at 1 × 10^6 cells/mL concentration in Annexin V-FITC binding buffer. Propidium iodide ([…]) and annexin V-FITC ([…]) were added for staining the cells and the fluorescence measurements was performed using a flow cytometer. FCSExpress software (version, Manufacturer, City, US State abbrev. if applicable, Country) was used to display the percent of normal and apoptotic cells at different stages. […] The experiments were carried out in triplicate.

[1] = system: A549 (Human lung adenocarcinoma epithelial cell line); test: MTT cytotoxicity test, A549; type: cell-based
Description: (§1) MTT assay, depending on the capability of metabolically active cells that change the pale yellow MTT colour to a spectrophotometrically measured blue formazan salt, is one of the most favoured cytotoxicity tests. We assessed the antitumor potential of new benzothiazole-acylhydrazones on A549, C6, MCF-7, and HT-29 cell lines with various concentrations (1 mM, 0.316 mM, 0.1 mM, 0.0316 mM, 0.01 mM, 0.00316 mM, 0.001 mM, 0.000316 mM). In addition, the cytotoxic activities of compounds 4a–4j were evaluated against healthy NIH3T3 cells, owing to show the selectivity towards carcinogenic cells. The IC50 values of the compounds against cell lines are represented in Table 1.
(§2) Metabolic activity of viable cells was measured by MTT assay based on the reduction of 3-(4,5-dimethylthiazol-2-yl)-2,5-diphenyltetrazolium salt to a formazan product, which can be quantified spectrophotometrically to determine the percent of viable cells.
(§3) Anticancer activities of new benzothiazole acylhydrazones derivatives were evaluated against A549 C6, MCF-7 and HT-29 cell lines. The selectivity of their cytotoxic effects was evaluated on NIH/3T3 mouse embryonic fibroblast cells. NIH/3T3 cells were incubated in DMEM supplemented with fetal calf serum, penicillin (100 IU/mL), streptomycin ([…]) and 7.5% NaHCO3 at 37 °C in a humidified atmosphere of 95% air and 5% CO2. Carcinogenic cells were incubated in RPMI medium supplemented with fetal calf serum, penicillin (100 IU/mL), streptomycin ([…]) and 7.5% NaHCO3 at 37 °C in a humidified atmosphere of 95% air and 5% CO2. All cell lines were seeded at a density of 1 × 10^4 cells into the 96-well plates. After 24 h of incubating period, the culture mediums were removed and test compounds were added at concentrations of 0.000316–1 mM. After a 24 h incubation period, OD of samples were measured by a microplate reader (Biotek, Winooski, VT, USA) at 540 nm. Inhibition % at concentrations was determined using the formula below and IC50 values were calculated by nonlinear regression analysis using the SigmaPlot v.10 package program (Manufacturer, City, US State abbrev. if applicable, Country).

[2] = system: MCF-7 (Human breast adenocarcinoma cell line); test: MTT cytotoxicity test, MCF-7; type: cell-based
Description: as §1, §2, §3

[3] = system: HT-29 (Human colorectal adenocarcinoma cell line); test: MTT cytotoxicity test, HT-29; type: cell-based
Description: as §1, §2, §3

[4] = system: NIH3T3 (Mouse embryo fibroblast cell line); test: MTT cytotoxicity test, healthy NIH3T3 cells; type: cell-based; details: for IC50: MTT, 24 h incubation, healthy cells
Description: as §1, §2, §3

[5] = system: C6 (Rat brain glioma cell line); test: MTT cytotoxicity test, C6; type: cell-based; details: 24 h incubation
Description: as §1, §2, §3

[6] = system: DNA synthesis of C6 cells; test: DNA synthesis inhibition assay (BrdU cell proliferation); type: cell-based, Rat; details: C6, IC50/4 to 4 × IC50, 24 h
Description: This immunostaining assay is related to detecting the attendance of BrdU into nuclear DNA instead of thymidine during S-phase of the cell cycle using specific anti-BrdU antibodies. Thus, this study was performed to evaluate inhibitory effects of compounds 4d, 4e, and 4h on proliferation of C6 cell lines. […] Figure 2 represents the DNA synthesis inhibitory effect of compounds 4d, 4e, and 4h on C6 cells.
The BrdU cell proliferation method was performed to analyse the effects of compounds 4d, 4e and 4h on proliferation of C6 cells. C6 cells were seeded into the 96-well plates at a density of 1 × 10^4 cells. […] At the end of the incubation period, BrdU solution was added and cells were reincubated for 2 h at 37 °C. Anti-BrdU-POD ([…]) was added and the mixture was incubated for 90 min. Microplates were washed with PBS for three times. After adding substrate solution, the mixture was incubated for 15 min. OD of the wells were determined at 492 nm.

[7] = Homo sapiens, A549, 24 h incubation
[8] = Homo sapiens, MCF7, 24 h incubation
[9] = Homo sapiens, HT-29, 24 h incubation

SMILES	Q1 percentage of necrotic cells (C6 cell line; C6, IC50 (0.03 mM)) [%]	Q2 percentage of late apoptotic cells (C6 cell line; C6, IC50 (0.03 mM)) [%]	Q4 percentage of early apoptotic cells (C6 cell line; C6, IC50 (0.03 mM)) [%]	percentages of apoptotic cells (C6 cell line) [%]	IC50 [1, 7] [µM]	IC50 [2, 8] [µM]	IC50 [3, 9] [µM]	IC50 ([4]; Mus musculus, NIH3T3) [µM]	IC50 ([5]; Rattus norvegicus, Glioma cell) [µM]	melting point [°C]	other results
N.N.[Cl][Pt][Cl] [Cisplatin, reference compound]	3.5	18.3	2.6	20.9							IC50 ([1]; 24 h incubation): 60 µM; IC50 ([2]; 24 h incubation): 50 µM; IC50 ([3]; 24 h incubation): 60 µM; IC50 [4]: > 1000 µM; IC50 [5]: 30 µM
O=C(CSc1nc2cc(Cl)ccc2s1)NN=Cc1ccc(N2CCCCC2)cc1 [Compound 4a, 2-((5-Chlorobenzothiazol-2-yl)thio)-N’-(4-(piperidin-1-yl)benzylidene)acetohydrazide]					> 1000	490	520	100	100	178 to 179	
CC1CCCCN1c1ccc(C=NNC(=O)CSc2nc3cc(Cl)ccc3s2)cc1 (stereo not drawn) [Compound 4b, 2-((5-Chlorobenzothiazol-2-yl)thio)-N’-(4-(2-methylpiperidin-1-yl)benzylidene)acetohydrazide]					1000	> 1000	1000	100	100	138 to 139	
CC1CCCN(c2ccc(C=NNC(=O)CSc3nc4cc(Cl)ccc4s3)cc2)C1 (stereo not drawn) [Compound 4c, 2-((5-Chlorobenzothiazol-2-yl)thio)-N’-(4-(3-methylpiperidin-1-yl)benzylidene)acetohydrazide]					520	100	300	30	100	149 to 150	
CC1CCN(c2ccc(C=NNC(=O)CSc3nc4cc(Cl)ccc4s3)cc2)CC1 [Compound 4d, 2-((5-Chlorobenzothiazol-2-yl)thio)-N’-(4-(4-methylpiperidin-1-yl)benzylidene)acetohydrazide]	6.9	3.1	2.4	5.5	> 1000	100	300	> 1000	30		Q1 percentage of necrotic cells (C6 cell line; C6, 2 × IC50 (0.06 mM)): 4.5%; Q2 percentage of late apoptotic cells (C6 cell line; C6, 2 × IC50 (0.06 mM)): 7.1%; Q3 percentage of viable cells (C6 cell line; C6, 2 × IC50 (0.06 mM)): 74.5%; Q4 percentage of early apoptotic cells (C6 cell line; C6, 2 × IC50 (0.06 mM)): 13.9%; Q3 percentage of viable cells (C6 cell line; C6, IC50 (0.03 mM)): 87.6%; Q1 percentage of necrotic cells (C6 cell line; C6, IC50/2 (0.015 mM)): 16.4%; Q2 percentage of late apoptotic cells (C6 cell line; C6, IC50/2 (0.015 mM)): 12.3%; Q4 percentage of early apoptotic cells (C6 cell line; C6, IC50/2 (0.015 mM)): 0.1%; viability at 15 µM (C6 cell line; C6, IC50/2 (0.015 mM)): 71.2%; DNA synthesis inhibitory activity compared with cisplatin [6]: higher inhibition potency than cisplatin at all concentrations
COc1ccc(N2CCN(c3ccc(C=NNC(=O)CSc4nc5cc(Cl)ccc5s4)cc3)CC2)cc1 [Compound 4e, 2-((5-Chlorobenzothiazol-2-yl)thio)-N’-(4-(4-(4-methoxyphenyl)piperazin-1-yl)benzylidene)acetohydrazide]	9.8	16.0	3.5	19.5	30	300	> 1000	10	30		Q1 percentage of necrotic cells (C6 cell line; C6, 2 × IC50 (0.06 mM)): 10.1%; Q2 percentage of late apoptotic cells (C6 cell line; C6, 2 × IC50 (0.06 mM)): 14.0%; Q3 percentage of viable cells (C6 cell line; C6, 2 × IC50 (0.06 mM)): 73.3%; Q4 percentage of early apoptotic cells (C6 cell line; C6, 2 × IC50 (0.06 mM)): 2.5%; Q3 percentage of viable cells (C6 cell line; C6, IC50 (0.03 mM)): 70.7%; Q1 percentage of necrotic cells (C6 cell line; C6, IC50/2 (0.015 mM)): 13.5%; Q2 percentage of late apoptotic cells (C6 cell line; C6, IC50/2 (0.015 mM)): 3.8%; Q4 percentage of early apoptotic cells (C6 cell line; C6, IC50/2 (0.015 mM)): 0%; viability at 15 µM (C6 cell line; C6, IC50/2 (0.015 mM)): 82.6%; DNA synthesis inhibitory activity compared with cisplatin [6]: higher antiproliferative effect than cisplatin at the concentrations of IC50/2, IC50, 2 × IC50, and 4 × IC50; selectivity index (SI) ([4]; NIH3T3 versus cancer cells): 0.33
COc1ccc2sc(SCC(=O)NN=Cc3ccc(N4CCCCC4)cc3)nc2c1 [Compound 4f, 2-((5-Methoxybenzothiazol-2-yl)thio)-N’-(4-(piperidin-1-yl)benzylidene)acetohydrazide]					> 1000	> 1000	> 1000	30	> 1000	138 to 139	
COc1ccc2sc(SCC(=O)NN=Cc3ccc(N4CCCCC4C)cc3)nc2c1 (stereo not drawn) [Compound 4g, 2-((5-Methoxybenzothiazol-2-yl)thio)-N’-(4-(2-methylpiperidin-1-yl)benzylidene)acetohydrazide]					> 1000	> 1000	> 1000	100	> 1000	138 to 139	
COc1ccc2sc(SCC(=O)NN=Cc3ccc(N4CCC(C)CC4)cc3)nc2c1 [Compound 4i, 2-((5-Methoxybenzo[d]thiazol-2-yl)thio)-N’-(4-(4-methylpiperidin-1-yl)benzylidene)acetohydrazide]					490	300	1000	30	100	149 to 150	
COc1ccc(N2CCN(c3ccc(C=NNC(=O)CSc4nc5cc(OC)ccc5s4)cc3)CC2)cc1 [Compound 4j, 2-((5-Methoxybenzo[d]thiazol-2-yl)thio)-N’-(4-(4-(4-methoxyphenyl)piperazin-1-yl)benzylidene)acetohydrazide]					> 1000	> 1000	> 1000	> 1000	> 1000	199 to 200	
